Results reported in PubChem BioAssay (NCI).
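In this assay, cells in 96-well plates receive the compound at five concentrations for 48 hours. Endpoints are linearly interpolated between the surrounding concentrations. TGI: concentration producing complete growth inhibition.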

Key:
Experiment in all cases: inhibition of tumour cell growth, NCI panel, 48 h
SF-268 CNS = tested on: SF-268 CNS
MDA-MB-231 breast = tested on: MDA-MB-231 breast
K-562 leukemia = tested on: K-562 leukemia
NCI-H460 lung = tested on: NCI-H460 lung
NCI-H522 lung = tested on: NCI-H522 lung
OVCAR-8 ovarian = tested on: OVCAR-8 ovarian
UACC-62 melanoma = tested on: UACC-62 melanoma
MALME-3M melanoma = tested on: MALME-3M melanoma

Compound | TGI (SF-268 CNS) [µM] | TGI (MDA-MB-231 breast) [µM] | TGI (K-562 leukemia) [µM] | TGI (NCI-H460 lung) [µM] | TGI (NCI-H522 lung) [µM] | TGI (OVCAR-8 ovarian) [µM] | TGI (UACC-62 melanoma) [µM] | TGI (MALME-3M melanoma) [µM]
CCCCCCNC(=O)CCC(NC(=O)c1ccc(N(C)Cc2cnc3nc(N)nc(N)c3n2)cc1)C(=O)NCCCCCC (stereo not given) | > 100 | > 100 | > 100 | > 100 | > 100 | > 100 | > 100 | 
CSCCCS/C1=C/CCCCCCCCCC1 | > 100 | > 100 | > 100 | > 100 |  |  | > 100 | > 100
O=c1oc2ccc([N+](=O)[O-])cc2c(Nc2ccc3c(c2)Sc2ccccc2O3)c1[N+](=O)[O-] | 61.6 | 38.8 | 88.3 | 57.8 | 33.8 | 77.3 | 32.3 | > 100
COC(=O)/C=C\C(C#N)(C#N)N=Cc1ccccc1 | 11.4 | 30.9 | 15 | 39.5 | 1.67 | 4.38 | 28 | 4.88
COc1cc(C2SC(C)C(=O)N2c2ccc(-c3csc(NS(=O)(=O)c4ccc(Cl)c(OC)c4)n3)cc2)ccc1O (stereo not given) | 84.6 | > 100 | > 100 | > 100 | 47.1 | > 100 | 55.3 | 82.4
COc1ccc(/C=C/C(=O)c2cc(C(C)(C)C)c(O)c(C(C)(C)C)c2)cc1OC | > 67.7 | 51.6 | > 89.6 | 20.2 | 72.1 | > 100 | 40.1 | > 100
CCOC(=O)c1nc2ccccc2nc1Oc1ccc(C(=O)OC)cc1 | > 100 | > 100 | > 100 | > 100 |  | > 100 | > 100 | > 100
COC(=O)CCc1ccc2c(c1)C(=O)CC2 | > 100 | > 100 | > 100 | > 100 | > 100 | > 100 |  | > 100
O=[N+]([O-])c1ccc(C(Nc2ccccc2)P(c2ccccc2)c2ccccc2)cc1 (stereo not given) | > 100 | > 100 | > 100 | > 100 | > 100 | > 100 | > 100 | > 100
O=C(NC1CCCCC1)c1cc2ccccc2cc1O | > 100 | > 100 | 55.9 | 62.8 |  | 67.9 | > 100 | 
Brc1ccc2c3c1[C@H]1O[C@H]1c1cccc(c1-3)[C@@H]1O[C@H]21 | 36.8 | 40.6 | > 100 |  | 27.6 | 37.7 | 32.5 | 33
O=c1cc(NNc2cccc(F)c2)[nH]c(=O)[nH]1 | > 100 | 30.4 | 84.4 | > 100 | 35.3 |  | > 100 | 34.9
COc1cc2cc(C(=O)N3CC(CCl)c4c3cc(NC(=O)OCc3ccc([N+](=O)[O-])cc3)c3ccccc43)[nH]c2c(OC)c1OC (stereo not given) | > 81.2 | > 81.5 |  | > 39.1 | > 76.7 | > 100 | > 100 | > 100
CC1(C)C(=O)c2ccccc2OC1N1CCN(C2Oc3ccccc3C(=O)C2(C)C)CC1 (stereo not given) | > 100 | > 100 | > 100 | > 100 | > 100 |  | > 100 | > 100
Cc1ccc(-n2cc(-c3ccc(Cl)cc3)c3c(N/N=C4\SCC(=O)N4C)ncnc32)cc1 | > 100 | 23.8 | > 100 | 43.2 | 26.7 | > 100 | 11.2 | 9.48
CC(=O)OCc1cncn1S(=O)(=O)c1ccc(C)cc1 | > 100 | > 100 | > 100 | > 65.5 | > 100 | > 100 | > 100 | > 100
CNC(=S)N/N=C(\C(=N/NC(=S)NC)c1ccccn1)c1ccccn1 | > 63.6 | > 100 | > 100 | > 100 | 72.8 | > 100 | > 100 | 98
Cc1ccc2c(=O)c(C(=O)Nn3c(C)csc3=S)c[nH]c2n1 | > 100 | > 100 | > 100 | > 100 | > 100 | > 100 | > 100 | > 100
Oc1ccc(Cl)cc1-c1cc(-c2ccccc2)nc(NCN2CCCCC2)n1 | > 100 | > 100 | > 100 | > 100 | > 100 | > 100 | > 100 | > 100
CC(=O)c1ccccc1NCC(=O)Nn1cnc2ccc(S(=O)(=O)Nc3ccccc3C(C)=O)cc2c1=O | > 100 | > 100 | > 100 | > 100 | > 100 | > 100 | > 100 | > 100
O=C(O)C[C@@H]1[C@@H](O)[C@@H](O)CN2C(=O)c3ccccc3[C@H]12 | > 100 | > 100 | > 100 | > 100 | > 100 | > 100 | > 100 | > 100
CCOC(=O)c1sc2nc(SC)nc3c2c1NCN3c1ccc(F)c(F)c1 | > 100 | 46.2 | > 100 | > 100 | > 100 | 29.4 | > 100 | > 49.1
CCCC(O)c1cn(C(NC(=O)c2ccccc2)P(=O)(OCC)OCC)nn1 (stereo not given) | > 100 | > 100 | > 100 | > 100 | > 100 | > 100 | > 100 | > 100
CC(=O)OCC1OC(OCCCCCCO)C(OC(C)=O)C(OC(C)=O)C1OC(C)=O (stereo not given) | > 100 | > 100 | > 100 | > 100 | > 100 | > 100 | > 100 | 
